# From PubChem BioAssay AID608 (Sanford-Burnham Center for Chemical Genomics, 2007)
# “And” between values parts separate entries of the source, which are not always exact repeats. Equal entries are not always repeated. The source made the active and inactive calls. How the calls were made is not given here.
# Target: Peptidyl-prolyl cis-trans isomerase FKBP1A (Homo sapiens) (UniProt P62942)
# Assay: FKBP12 binders, biophysical, NMR detection (AID 608)
# Details: NMR binding, purified FKBP12
# Peptidyl-prolyl cis-trans isomerase FKBP1A (Homo sapiens), sequence (P62942 whole entry, looked up): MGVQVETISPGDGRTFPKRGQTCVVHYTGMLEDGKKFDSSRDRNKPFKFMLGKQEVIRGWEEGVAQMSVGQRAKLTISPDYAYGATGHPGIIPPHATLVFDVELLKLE
row,SMILES,Kd
1,O=C(Nc1cccc(Cl)c1)c1cnn2cccnc12,> 4 mM (inactive)
2,COC(=O)[C@@H]1OC(=O)C2OC23[C@@]1(C)CCC1[C@]2(C)C(C[C@@H](O)[C@]13C)C(C)(C)[C@H](OC(C)=O)C[C@@H]2OC(C)=O (stereo partly specified),> 4 mM (inactive)
3,O=C(O)c1ccc(-c2cccs2)s1,> 4 mM (inactive)
4,CC1(C)CC2C1CCC1(C)OC2(C)CCC1O (stereo unspecified),> 4 mM (inactive)
5,O=C(O)CCC(=O)Nc1ccccn1,> 4 mM (inactive)
6,COc1ccc(C[C@H]2NC[C@H](O)[C@H]2OC(C)=O)cc1,> 4 mM (inactive)
7,c1cc(C(N2CCOCC2)N2CCOCC2)ccn1,> 4 mM (inactive)
8,O=C1c2ccc(F)cc2C(=O)N1CO,> 4 mM (inactive)
9,CC1CCN(S(=O)(=O)N(C)C)CC1,> 4 mM (inactive)
10,COc1ccc(Cl)cc1NC(=O)C(N)=O,> 4 mM (inactive)
11,Cc1cc(=O)n2ccc(CN3CCOCC3)c(O)c2n1,> 4 mM (inactive)
12,NC(=O)Cn1cnc2c(cnn2-c2ccccc2)c1=O,> 4 mM (inactive)
13,Cc1nn(-c2ccccc2)c(Cl)c1C(N)=O,> 4 mM (inactive)
14,CCOc1ccc2nc(NS(C)(=O)=O)sc2c1,> 4 mM (inactive)
15,Nc1cccc(S(=O)(=O)N2CCCCC2)c1,> 4 mM (inactive)
16,Cc1ccc(OCC(=O)N2CC(C)OC(C)C2)cc1C (stereo unspecified),> 4 mM (inactive)
17,CC(C)(O)P(C)(=O)c1ccccc1 (stereo unspecified),> 4 mM (inactive)
18,COc1cccc2c1CCC1=CC(=O)CC[C@@]12C,> 4 mM (inactive)
19,CCOC(=O)CSCC(=O)Nc1nccs1,> 4 mM (inactive)
20,O=C(Nc1ccc(O)cc1)N1CCOCC1,> 4 mM (inactive)
21,Nc1nncn1C(=O)c1ccccc1Cl,> 4 mM (inactive)
22,Cc1cccc(NC(=O)NC(N)=O)c1,> 4 mM (inactive)
23,CC(=O)Cc1nsc(NC(=O)c2ccc(C)cc2)n1,> 4 mM (inactive)
24,O=C(Nc1ccncc1)c1c(F)cccc1F,> 4 mM (inactive)

row,SMILES,Kd
1,Cc1cc(C)nc(/N=C(/N)N2CCOCC2)n1,> 4 mM (inactive)
2,NCCCCN,> 4 mM (inactive)
3,O=c1c2c(nc3nc(Cc4ccccc4)[nH]n13)CCC2,> 4 mM (inactive)
4,CN1CCC(NC(=O)c2ccccc2[N+](=O)[O-])CC1,> 4 mM (inactive)
5,O=C(c1ccco1)N1CCCN(C(=O)c2ccco2)CC1,0.072 mM and 0.277 mM
6,O=C(c1cc(Cl)cc(Cl)c1)N1CCOCC1,> 4 mM (inactive)
7,COC(=O)c1ccc2nsnc2c1,> 4 mM (inactive)
8,CC1(C)C(=O)C=C[C@@]2(C)C1C=C[C@]1(C)C2CC[C@@]2(C)[C@H](c3ccoc3)OC(=O)C3OC321 (stereo partly specified),> 4 mM (inactive)
9,Cc1nnc(NC(=O)C(C)Sc2nncn2C)s1 (stereo unspecified),> 4 mM (inactive)
10,N=c1c2c3c(sc2ncn1N)CCCC3,> 4 mM (inactive)
11,CN1CCN(C(=O)c2cc(-c3ccccc3)on2)CC1,> 4 mM (inactive)
12,O=c1cc(-c2cc(O)c(O)c(O)c2)oc2cc(O)cc(O)c12,> 4 mM (inactive)
13,O=C(O)c1cnn2ccccc12,> 4 mM (inactive)
14,COc1cc([C@@H]2c3cc4c(cc3[C@H](O)[C@H]3COC(=O)[C@@H]23)OCO4)cc(OC)c1OC,> 4 mM (inactive)
15,Cc1cc(O)c2c(c1)C(=O)c1cccc(O)c1C2=O,> 4 mM (inactive)
16,CC12OC(=O)CC3C(C)(C)[C@H](O)C=C[C@]3(C)C1CC[C@]1(C)C2=CC(=O)O[C@H]1c1ccoc1 (stereo partly specified),> 4 mM (inactive)
17,COc1cccc(OC)c1C(=O)N1CCOCC1,> 4 mM (inactive)
18,Cc1ccc(-c2ccc(OCC(=O)N3CCOCC3)cc2)cc1,inactive
19,CC(=O)c1ccc(CC2SC(N)=NC2=O)cc1 (stereo unspecified),> 4 mM (inactive)
20,Clc1ccc(-c2noc(CN3CCCC3)n2)cc1,> 4 mM (inactive)
21,Cc1cc(=O)c2c(O)cc(O)c(C)c2o1,> 4 mM (inactive)
22,O=C(O)CC12CC3CC(CC(O)(C3)C1)C2,> 4 mM (inactive)
23,COC(=O)c1c[nH]c2ccccc12,> 4 mM (inactive)
24,C=C(C)CSc1nc2nc(C)cc(C)n2n1,> 4 mM (inactive)

row,SMILES,Kd
1,CNC(=O)c1cc(C)c(-c2ccccc2)s1,> 4 mM (inactive)
2,O=S1(=O)CCC2CC=CCC21 (stereo unspecified),> 4 mM (inactive)
3,CC(=O)Oc1ccccc1N1C(=O)C=CC1=O,> 4 mM (inactive)
4,O=C1CSC(=S)N1Cc1cccnc1,> 4 mM (inactive)
5,NC(=O)CC(=O)NC12CC3CC(CC(C3)C1)C2,> 4 mM (inactive)
6,COC(=O)c1cc2ccccc2cn1,> 4 mM (inactive)
7,O=c1c(-c2cccs2)[n+]([O-])c2ccccc2n1O,> 4 mM (inactive)
8,Fc1cc2nccnc2cc1N1CCSCC1,> 4 mM (inactive)
9,COc1ccc(Cc2nnc3c4cnn(C)c4ncn23)cc1,> 4 mM (inactive)
10,CCOc1cccc(C(=O)c2ccc(O)c(O)c2O)c1,> 4 mM (inactive)
11,COC(=O)/C(C)=C\CC12OC(C)(C)C3CC(C=C4C(=O)c5c(OC)c6c(c(CC=C(C)C)c5OC431)OC(C)(CCC=C(C)C)C=C6)C2=O (stereo unspecified),> 4 mM (inactive)
12,CC(C)c1ccc(CCC(=O)N2CCOCC2)cc1,0.0023 mM
13,CC(=O)N1CCN(c2ccc(N)cc2)CC1,> 4 mM (inactive)
14,OCc1ccccc1N1CCOCC1,> 4 mM (inactive)
15,N#Cc1ccccc1CSc1ccccn1,> 4 mM (inactive)
16,c1ccc(-n2cnnc2)nc1,> 4 mM (inactive)
17,COC(=O)c1c(C)c2c(c(C)c1O)OC(=O)c1c(C)c(Cl)c(O)c(Cl)c1O2,> 4 mM (inactive)
18,COc1cccc(C(=O)Nc2c(C)n[nH]c2C)c1,> 4 mM (inactive)
19,Cc1c(C(=O)NC2=NCCS2)oc2ccccc12,> 4 mM (inactive)
20,C/C=C(\C)C(=O)OC1[C@@H]2C=C3C(CC[C@]4(C)C3CC(=O)O[C@H]4c3ccoc3)C(C)(C2=O)[C@@H](C(O)C(=O)OC)C1(C)C (stereo partly specified),> 4 mM (inactive)
21,CNCc1ccco1,> 4 mM (inactive)
22,Brc1ccc(-c2nc(-c3ccncc3)no2)o1,> 4 mM (inactive)
23,CC(C)Nc1nc2n(c(=O)n1)CCN2C(C)C,> 4 mM (inactive)
24,Nc1nc2c3ccccc3nc(Cc3ccccc3)n2n1,> 4 mM (inactive)

row,SMILES,Kd
1,Cc1noc(C)c1C(=O)N1CCc2ccccc21,> 4 mM (inactive)
2,c1ccc2c(c1)CN1CCCC1=N2,> 4 mM (inactive)
3,O=C(Oc1ccc(-c2nnco2)cc1)N1CCCCC1,> 4 mM (inactive)
4,O=C1CC(NCc2ccco2)C(=O)NN1 (stereo unspecified),> 4 mM (inactive)
5,Cn1cnc2nc3n(c2c1=O)CCC3,> 4 mM (inactive)
6,CC(=O)Nc1ccc(C(=O)NC2=NCCS2)cc1,> 4 mM (inactive)
7,Cc1ccc(C(=O)N2CCC(C(N)=O)CC2)c(Cl)c1,> 4 mM (inactive)
8,Cc1cc(C)nc(/N=C(/N)N2CCN(C)CC2)n1,> 4 mM (inactive)
9,COc1cc2c(cc1-c1cc3cc4ccoc4cc3oc1=O)OCO2,> 4 mM (inactive)
10,CN(C)S(=O)(=O)c1ccccc1C#N,> 4 mM (inactive)
11,O=C(NCc1ccco1)c1ccc(Br)s1,> 4 mM (inactive)
12,O=c1[nH]c(O)c(C=NCc2cccs2)c(=O)[nH]1,> 4 mM (inactive)
13,C=C1CCC2C(CC2(C)C)C(=O)CCC1O (stereo unspecified),> 4 mM (inactive)
14,Cc1c(C)c2c(c(C)c1O)CCC(C)(CCCC(C)CCCC(C)CCCC(C)C)O2 (stereo unspecified),> 4 mM (inactive)
15,Cc1csc2nc(=O)c3ccccc3n12,> 4 mM (inactive)
16,O=C(Cn1c(-c2cscn2)nc2ccccc21)Nc1ccccc1F,> 13.6 mM (inactive)
17,CNC(=O)C(=O)Nc1ccc(F)cc1,> 4 mM (inactive)
18,Cc1ccc(NC(=O)CC2NCCNC2=O)c(C)c1 (stereo unspecified),> 4 mM (inactive)
19,O=C(O[C@@H]1Cc2c(O)cc(O)cc2O[C@@H]1c1cc(O)c(O)c(O)c1-c1c([C@H]2Oc3cc(O)cc(O)c3C[C@H]2O)cc(O)c(O)c1O)c1cc(O)c(O)c(O)c1,> 4 mM (inactive)
20,Nc1ccc(C(=O)NCC2CCCO2)cc1 (stereo unspecified),> 4 mM (inactive)
21,CCC(C)C(=O)OC1[C@@H]2CC3=C4CC(=O)O[C@@H](c5ccoc5)[C@]4(C)CCC3C(C)(C2=O)[C@@H](CC(=O)OC)C1(C)C (stereo partly specified),> 4 mM (inactive)
22,O=C1Cc2ccccc2N1c1ccccc1,> 4 mM (inactive)
23,Cc1cc(Oc2ccccc2)nc(N)n1,> 4 mM (inactive)
24,c1nnc2c3c4c(sc3ncn12)CCCC4,> 4 mM (inactive)

row,SMILES,Kd
1,CNC(=S)Nc1ccc(C(=O)O)cc1,> 4 mM (inactive)
2,COc1ccc(Cl)cc1-c1n[nH]c(=S)n1C,> 4 mM (inactive)
3,CC(=O)Nc1ccc(NC(=O)N2CCOCC2)cc1,> 4 mM (inactive)
4,Nc1cc(=O)[nH]c(=O)n1Cc1ccco1,> 4 mM (inactive)
5,O=C(O)CCc1ccc2c(c1)OCO2,> 4 mM (inactive)
6,O=C1C=CC2=C3c4cc(O)c(O)cc4C[C@@]3(O)COC2=C1,> 4 mM (inactive)
7,COc1ccc2[nH]cc(CCN(C)C)c2c1,> 4 mM (inactive)
8,O=C(O)c1cccnc1-c1nc2ccccc2s1,> 4 mM (inactive)
9,O=C(NCN1CCOCC1)c1cnccn1,> 4 mM (inactive)
10,NC(=O)c1sc2ccccc2c1Cl,> 4 mM (inactive)
11,CN1C2CC[C@@H]1CC(OC(=O)[C@H](CO)c1ccccc1)C2 (stereo partly specified),> 4 mM (inactive)
12,Cc1nn2c(nc1=O)SCC(c1ccccc1)=N2,> 4 mM (inactive)
13,CC(=O)O[C@H]1C[C@@H](OC(C)=O)C(C)(C)C2C[C@@H](OC(C)=O)[C@]3(C)C(CC[C@@]4(C)[C@H](c5ccoc5)C(=O)[C@H]5O[C@]543)[C@]21C (stereo partly specified),> 4 mM (inactive)
14,CCOC(=O)CSc1nnc(C)c(=O)[nH]1,> 4 mM (inactive)
15,Cn1cc(Cl)c(C(=O)Nc2ccc(F)cc2F)n1,> 4 mM (inactive)
16,COc1ccc(-c2c(OC)c3c(OC)c4c(cc3oc2=O)OC(C)(C)C=C4)cc1,> 4 mM (inactive)
17,O=C(NCc1cccs1)c1ccc2c(c1)OCCO2,> 4 mM (inactive)
18,CCc1ccccc1NC(=O)c1ccoc1C,> 4 mM (inactive)
19,CC(C)c1ccc2c(c1)CCC1C(C)(C(N)=O)CCCC21C (stereo unspecified),> 4 mM (inactive)
20,Nc1nnc(COc2cccc(C(F)(F)F)c2)s1,> 4 mM (inactive)
